Reference: ChEMBL document CHEMBL5528004, “Development of a new class of potent and highly selective G protein-coupled receptor kinase 5 inhibitors and structural insight from crystal structures of inhibitor complexes” (Eur J Med Chem, 2024)

Columns and labels:
[1] = target: T1, Beta-adrenergic receptor kinase 1 (Bos taurus, UniProt P21146); test: Inhibition of bovine GRK2 expressed in baculovirus infected insect cell using tubulin as substrate incubated for 5 mins in presence of [gamma-32P]-ATP by radiometric assay
T1 sequence (P21146 whole entry): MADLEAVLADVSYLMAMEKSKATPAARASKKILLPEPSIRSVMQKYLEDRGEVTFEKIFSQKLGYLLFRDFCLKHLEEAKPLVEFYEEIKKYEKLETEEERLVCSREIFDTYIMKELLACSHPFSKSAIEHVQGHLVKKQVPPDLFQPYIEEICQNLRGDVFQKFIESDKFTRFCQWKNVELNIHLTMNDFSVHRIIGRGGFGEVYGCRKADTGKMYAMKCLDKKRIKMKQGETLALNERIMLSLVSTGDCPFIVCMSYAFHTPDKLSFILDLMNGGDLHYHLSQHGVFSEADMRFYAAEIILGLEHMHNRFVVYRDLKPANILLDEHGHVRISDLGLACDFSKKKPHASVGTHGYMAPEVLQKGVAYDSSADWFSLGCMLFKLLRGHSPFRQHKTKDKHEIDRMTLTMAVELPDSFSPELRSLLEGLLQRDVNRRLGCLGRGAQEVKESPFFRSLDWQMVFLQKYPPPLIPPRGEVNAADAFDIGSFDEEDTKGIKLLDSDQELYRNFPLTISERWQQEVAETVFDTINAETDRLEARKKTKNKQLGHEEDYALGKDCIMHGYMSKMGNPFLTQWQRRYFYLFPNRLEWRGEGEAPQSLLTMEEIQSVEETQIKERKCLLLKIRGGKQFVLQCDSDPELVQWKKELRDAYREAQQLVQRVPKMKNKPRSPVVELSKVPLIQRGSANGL

[2] = target: G protein-coupled receptor kinase 5 (Homo sapiens, UniProt P34947); test: Inhibition of human GRK5 (1 to 590) expressed in Escherichia coli using tubulin as substrate incubated for 5 mins in presence of [gamma-32P]-ATP by radiometric assay
Sequence of G protein-coupled receptor kinase 5 (P34947 whole entry): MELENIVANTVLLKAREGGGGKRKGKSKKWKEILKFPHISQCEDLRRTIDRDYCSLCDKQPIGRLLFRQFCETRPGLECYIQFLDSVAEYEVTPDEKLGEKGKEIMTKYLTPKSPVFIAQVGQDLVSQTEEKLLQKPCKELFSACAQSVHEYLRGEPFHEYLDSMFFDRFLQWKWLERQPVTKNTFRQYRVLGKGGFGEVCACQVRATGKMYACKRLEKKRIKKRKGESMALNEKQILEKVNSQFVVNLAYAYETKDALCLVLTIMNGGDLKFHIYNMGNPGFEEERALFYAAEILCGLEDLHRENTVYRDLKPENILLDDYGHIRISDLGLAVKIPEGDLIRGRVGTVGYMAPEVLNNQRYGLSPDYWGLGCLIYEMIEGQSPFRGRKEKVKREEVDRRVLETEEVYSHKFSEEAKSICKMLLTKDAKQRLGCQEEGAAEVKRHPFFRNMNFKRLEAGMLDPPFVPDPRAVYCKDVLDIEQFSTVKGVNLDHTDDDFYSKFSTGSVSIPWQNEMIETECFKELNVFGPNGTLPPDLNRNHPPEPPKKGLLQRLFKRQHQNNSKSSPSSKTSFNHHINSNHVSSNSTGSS

[3] = Selectivity index, ratio of IC50 for inhibition of bovine GRK2 to IC50 for inhibition of human GRK5

Structure (SMILES)	IC50 [1] [µM]	IC50 [2] [µM]	Ratio IC50 [3]
Cc1[nH]c(/C=C2\C(=O)Nc3ccc(C(=O)NCc4ccc(F)cc4)cc32)c(C)c1NC(=O)[C@@H](O)c1ccco1	2.2		
CC(=O)C(=O)Nc1c(C)[nH]c(/C=C2\C(=O)Nc3ccc(C(=O)N[C@H](C)c4ccc(F)cc4)cc32)c1C	200		
Cc1[nH]c(/C=C2\C(=O)Nc3ccc(C(=O)N[C@H](C)c4ccc(F)cc4)cc32)c(C)c1NC(=O)C(=O)c1ccco1	> 1000		
Cc1[nH]c(/C=C2\C(=O)Nc3ccc(C(=O)N[C@H](C)c4ccc(F)cc4)cc32)c(C)c1NC(=O)[C@@H](O)c1ccccc1	90		
Cc1[nH]c(/C=C2\C(=O)Nc3ccc(C(=O)N[C@H](C)c4ccc(F)cc4)cc32)c(C)c1NC(=O)C(=O)c1ccccc1	> 1000	1.1	900
Cc1[nH]c(/C=C2\C(=O)Nc3ccc(C(=O)N[C@H](C)c4ccc(F)cc4)cc32)c(C)c1NC(=O)[C@H](C)O	100		
Cc1[nH]c(/C=C2\C(=O)Nc3ccc(C(=O)N[C@H](C)c4ccc(F)cc4)cc32)c(C)c1NC(=O)[C@@H](C)O	600		
Cc1[nH]c(/C=C2\C(=O)Nc3ccc(C(=O)NCc4ccc(F)cc4)cc32)c(C)c1NC(=O)[C@H](O)c1ccccc1	30		
